# Assay results as given in publication PMC10238281 (International Journal of Biological Macromolecules, 2023).
# Experiments:
# SARS2-S pseudovirus = test: microbe, parasite or virus in culture; format: cell-based, SARS-CoV-2; details: for activity at 2 µM: A549-ACE2, 72 h, read-out: Luciferase ratio (%), 2 μM
# [1] = Tissue distribution / pharmacokinetics in female ICR mice; format: in vivo
# spike RBD protein = spike RBD protein (Severe acute respiratory syndrome coronavirus 2, UniProt P0DTC2); format: binding, SARS-CoV-2
compound,measurement,setting,value
"CN1CCN(c2ccc(-c3cnc4[nH]cc(C(=O)c5ccc(F)cc5)c4c3)cc2)CC1 [ASM-2, (4-Fluorophenyl)(5-(4-(4-methylpiperazin-1-yl)phenyl)-1H-pyrrolo[2,3-b]pyridin-3-yl)methanone]",activity at 2 µM,SARS2-S pseudovirus; Pseudovirus,< 25%
"COc1ccc(C(=O)c2c[nH]c3ncc(-c4ccc(N5CCNCC5)nc4)cc23)cc1 [ASM-4, (4-Methoxyphenyl)(5-(6-(piperazin-1-yl)pyridin-3-yl)-1H-pyrrolo[2,3-b]pyridin-3-yl)methanone]",activity at 2 µM,SARS2-S pseudovirus; Pseudovirus,< 25%
"O=C(c1ccc(F)cc1)c1c[nH]c2ncc(-c3ccc(N4CCNCC4)nc3)cc12 [ASM-7, (4-Fluorophenyl)(5-(6-(piperazin-1-yl)pyridin-3-yl)-1H-pyrrolo[2,3-b]pyridin-3-yl)methanone]",Fold advantage of EC50 over G7a,SARS2-S pseudovirus,20 fold
same,EC50,"SARS2-S pseudovirus; Pseudovirus, A549-ACE2, read-out: EC50, inhibition of SARS2-S pseudovirus entry",0.45 µM
same,"Organ distribution (heart, liver, spleen, lung, kidney, brain)","[1]; female ICR mice, 1 h after oral administration (30 mg/kg)",favorable targetability towards the lung
same,Blood versus lung concentration,"[1]; female ICR mice, intravenous administration, 5 min",concentration of ASM-7 in the lung was substantially higher
same,Detection in the lung after oral administration,"[1]; female ICR mice, oral, 4 h",could still be detected in the lung
same,concentration at 5 min,"[1]; female, ICR, mouse, lung, iv, 3 mg/kg",30000 ng/g
"O=C(c1cccc(F)c1)c1c[nH]c2ncc(-c3ccc(N4CCNCC4)nc3)cc12 [ASM-9, (3-Fluorophenyl)(5-(6-(piperazin-1-yl)pyridin-3-yl)-1H-pyrrolo[2,3-b]pyridin-3-yl)methanone]",activity at 2 µM,SARS2-S pseudovirus; Pseudovirus,< 25%
"O=C(CCCCC1SCC2NC(=O)NC21)NCCCCCC(=O)N1CCN(c2ccc(-c3cnc4[nH]cc(C(=O)c5ccc(F)cc5)c4c3)cn2)CC1 (centres unmarked) [Biotin-ASM-7, N-(6-(4-(5-(3-(4-Fluorobenzoyl)-1H-pyrrolo[2,3-b]pyridin-5-yl)pyridin-2-yl)piperazin-1-yl)-6-oxohexyl)-5-(2-oxohexahydro-1H-thieno[3,4-d]imidazol-4-yl)pentanamide]",Binding / pull-down of spike RBD protein by streptavidin IP,spike RBD protein,could pull down the spike RBD protein
"O=C(CCCCC1SCC2NC(=O)NC21)NCCCCCC(=O)N1CCN(c2ccc(-c3cnc4[nH]c(/C=C/c5ccccc5O)nc4c3)cn2)CC1 (centres unmarked) [Biotin-G7a, (E)-N-(6-(4-(5-(2-(2-Hydroxystyryl)-3H-imidazo[4,5-b]pyridin-6-yl)pyridin-2-yl)piperazin-1-yl)-6-oxohexyl)-5-(2-oxohexahydro-1H-thieno[3,4-d]imidazol-4-yl)pentanamide]",Binding / pull-down of spike RBD protein by streptavidin IP,spike RBD protein,retained the ability to bind spike RBD protein
